From the supplement of paper PMC3974653
Where a name gives a salt, the structure may show the parent alone.

System: MTT (mouse pheochromocytoma)
Test: IC50 of cell viability (ATP content)
Conditions: (24 or 48 h)
Procedure, shortened: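 Library compounds were tested at 8 final concentrations (0.5 nM to 46 µM) on MTT mouse pheochromocytoma cells for 24 or 48 hrs, with readout by CellTiter-Glo ATP luminescence. Signals were normalised with positive-control wells at 100% and DMSO wells at 0%. IC50 values were obtained by a four-parameter logistic fit.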

Row | IC50 of cell viability [µM] | SMILES
1 | > 46 | C\C1=C(\[N@]2[C@@H](SC1)[C@H](NC(=O)[C@@H](N)C3=CC=C(O)C=C3)C2=O)C(O)=O [Cefadroxil]
2 | > 46 | CC1=C(C(=O)O)N2C(=O)[C@@H](NC(=O)[C@H](N)c3ccccc3)[C@H]2SC1 [Cefalexina]
3 | > 46 | NC(=O)C1=CC=[N+](C\C2=C(\[N@]3[C@@H](SC2)[C@H](NC(=O)CC4=CC=CS4)C3=O)C([O-])=O)C=C1 [Cefalonium]
4 | > 46 | CC(=O)OCC1=C(C(=O)[O-])N2C(=O)C(NC(=O)Cc3ccccc3)C2SC1 (centres undefined) [Cefaloram]
5 | > 46 | CC(=O)OCC1=C(C(=O)O)N2C(=O)[C@@H](NC(=O)Cc3cccs3)[C@H]2SC1 [Cefalotina]
6 | > 46 | Cn1nnnc1SCC1=C(C(=O)O)N2C(=O)[C@@H](NC(=O)[C@H](OC=O)c3ccccc3)[C@H]2SC1 [Cefamandole nafate]
7 | > 46 | [Na+].C[N]1N=NN=C1SC\C2=C(\[N@]3[C@@H](SC2)[C@H](NC(=O)[C@@H](O)C4=CC=CC=C4)C3=O)C([O-])=O [Cefamandole sodium salt]
8 | > 46 | Cc1nnc(SCC2=C(C(=O)O)N3C(=O)[C@@H](NC(=O)Cn4cnnn4)[C@H]3SC2)s1 [Cefazolin]
9 | > 46 | CC/C=C(/C(=O)N[C@@H]1C(=O)N2C(C(=O)OCOC(=O)C(C)(C)C)=C(COC(N)=O)CS[C@H]12)c1csc(N)n1 [Cefcapene pivoxil HCl]
10 | > 46 | CC/C=C(\C(=O)N[C@H]1C(=O)N2C(C(=O)OCOC(=O)C(C)(C)C)=C(COC(N)=O)CS[C@H]12)c1csc(N)n1 [Cefcapene pivoxil hydrochloride]
11 | > 46 | C=CC1=C(C(=O)O)N2C(=O)[C@@H](NC(=O)C(N=O)c3csc(N)n3)[C@H]2SC1 (some centres undefined) [Cefdinir]
12 | > 46 | CO/N=C(\C(=O)N[C@@H]1C(=O)N2C(C(=O)[O-])=C(C[N+]3(C)CCCC3)CS[C@@H]12)c1csc(N)n1.Cl.O [Cefepime hydrochloride]
13 | > 46 | C=CC1=C(C(=O)O)N2C(=O)[C@@H](NC(=O)/C(=N\OCC(=O)O)c3csc(N)n3)[C@@H]2SC1 [Cefixime]
14 | > 46 | [Na+].CO[C@@]1(NC(=O)CSCC#N)[C@@H]2SC\C(=C(/N2C1=O)C([O-])=O)CSC3=NN=N[N]3C [Cefmetazole sodium salt]
15 | > 46 | NCC1=C(CC(=O)N[C@H]2[C@@H]3SC\C(=C(/N3C2=O)C(O)=O)CSC4=NN=N[N]4CC(O)=O)C=CC=C1 [Ceforanide]
16 | > 46 | CO/N=C(\C(=O)N[C@@H]1C(=O)N2C(C(=O)[O-])=C(COC(C)=O)CS[C@@H]12)c1csc(N)n1.[Na+] [Cefotaxime sodium salt]
17 | > 46 | CO[C@@]1(NC(=O)[C@@H]2S\C(S2)=C(\C(N)=O)C(O)=O)[C@@H]3SC\C(=C(/N3C1=O)C(O)=O)CSC4=NN=N[N]4C (some centres undefined) [Cefotetan]
18 | > 46 | CN(C)CC[N]1N=NN=C1SC\C2=C(\[N@]3[C@@H](SC2)[C@H](NC(=O)CC4=CSC(=N4)N)C3=O)C(O)=O [Cefotiam hydrochloride]
19 | > 46 | CO[C@@]1(NC(=O)Cc2cccs2)C(=O)N2C(C(=O)O)=C(COC(N)=O)CS[C@@H]21 [Cefoxitin sodium salt]
20 | > 46 | COCC1=C(C(=O)OC(C)OC(=O)OC(C)C)N2C(=O)C(NC(=O)/C(=N\OC)c3csc(N)n3)C2SC1 (centres undefined) [Cefpodoxime proxetil]
21 | > 46 | COC/1=C(/N2[C@H](SC1)[C@H](NC(=O)C(N)C/3\C=C/C/C=C3)C2=O)C(O)=O (some centres undefined) [Cefradoxil]
22 | > 46 | [Na+].NC(=O)C1=CC=[N+](C\C2=C(\[N@]3[C@@H](SC2)[C@H](NC(=O)[C@H](C4=CC=CC=C4)[S]([O-])(=O)=O)C3=O)C([O-])=O)C=C1 [Cefsulodin sodium salt]
23 | > 46 | CC(C)(O/N=C(\C(=O)N[C@@H]1C(=O)N2C(C(=O)[O-])=C(C[n+]3ccccc3)CS[C@@H]12)c1csc(N)n1)C(=O)O.O.O.O.O.O [Ceftazidime pentahydrate]
24 | > 46 | O=C(Cn1cnnn1)N[C@@H]1C(=O)N2C(C(=O)O)=C(CSc3nncs3)CS[C@H]12 [Ceftezole sodium]
25 | > 46 | CO/N=C(/C(=O)N[C@@H]1C(=O)N2C(C(=O)O)=C(COC(N)=O)CS[C@H]12)c1ccco1 [Cefuroxime Free Acid]
26 | > 46 | [Na+].CC(=O)OC\C1=C(\[N@]2[C@@H](SC1)[C@H](NC(=O)CSC3=CC=NC=C3)C2=O)C([O-])=O [Cephapirin sodium salt]
27 | > 46 | CC1=C(C(=O)O)N2C(=O)[C@@H](NC(=O)[C@H](N)C3=CCC=CC3)[C@H]2SC1 [Cephradine]
28 | > 46 | CCOC(=O)[C@H](CCc1ccccc1)N[C@H]1CCCN2CCC[C@@H](C(=O)O)N2C1=O [Cilazapril]

Second part, the molecule before the results:

Row | SMILES | IC50 of cell viability [µM]
29 | Cc1ccc(-c2cc(C(F)(F)F)nn2-c2ccc([S+](N)(=O)[O-])cc2)cc1 [Celecoxib] | > 46
30 | CC(=O)OC[C@H]1O[C@@H](O[C@H]2[C@H](O)[C@@H](OC(=O)c3ccccc3C(=O)O)[C@H](O)O[C@@H]2COC(C)=O)[C@H](O)[C@@H](OC(=O)c2ccccc2C(=O)O)[C@@H]1O [Cellulose Acetate Phthalate] | > 46
31 | CC(=O)OC\C1=C(\[N@]2[C@@H](SC1)[C@H](N)C2=O)C(O)=O [Cephalosporanic acid, 7-amino] | > 46
32 | CNC1(c2ccccc2Cl)CCCCC1=O (centres undefined) [Cetamina] | > 46
33 | O=C(O)COCCN1CCN([C@@H](c2ccccc2)c2ccc(Cl)cc2)CC1 [Cetirizine dihydrochloride] | > 46
34 | [H]C1(CN)CC[C@@]([H])(CC1)C(=O)OC2=CC=C(CCC(O)=O)C=C2 (centres undefined) [Cetraxate hydrochloride] | > 46
35 | C[C@H](CCC(=O)O)[C@@H]1CC[C@H]2[C@@H]3[C@@H](CC[C@@]21C)[C@@]1(C)CC[C@H](O)C[C@@H]1C[C@@H]3O [Chenodiol] | > 46
36 | Cc1ccc(S(=O)(=O)[N-]Cl)cc1.O.O.O.[Na+] [Chloramine T trihydrate] | > 46
37 | CCCCCCCCCCCCCCCC(=O)OCC(NC(=O)C(Cl)Cl)C(O)c1ccc([N+](=O)[O-])cc1 (centres undefined) [Chloramphenicol palmitate] | > 46
38 | O=C(O)CCC(=O)OC[C@@H](NC(=O)C(Cl)Cl)[C@H](O)c1ccc([N+](=O)[O-])cc1 [Chloramphenicol succinate sodium salt] | > 46
39 | O=C(N[C@H](CO)[C@H](O)c1ccc([N+](=O)[O-])cc1)C(Cl)Cl [Chloramphenicol] | > 46
40 | N=C(NCCCCCCNC(=N)NC(=N)Nc1ccc(Cl)cc1)NC(=N)Nc1ccc(Cl)cc1 [Chlorhexidine] | > 46
41 | Oc1ccc(Cl)c2c1CCC2 [Chlorindanol] | > 46
42 | CC(=O)[C@@]1(O)CC[C@H]2[C@@H]3C=C(Cl)C4=CC(=O)CC[C@]4(C)[C@H]3CC[C@@]21C [Chlormadinone] | > 46
43 | CN1C(=O)CC[S+](=O)([O-])C1c1ccc(Cl)cc1 (centres undefined) [Chlormezanone] | > 46
44 | ClC(Cl)Cl [Chloroform] | > 46
45 | CN(C)CCN(Cc1ccc(Cl)cc1)c1ccccn1 [Chloropyramine hydrochloride] | > 46
46 | N[S+]([O-])(=O)C1=C(Cl)C=C2\N=C/N[S+]([O-])(=O)C2=C1 [Chlorothiazide] | > 46

Row | SMILES | IC50 of cell viability [µM]
47 | COc1ccc(C(Cl)=C(c2ccc(OC)cc2)c2ccc(OC)cc2)cc1 [Chlorotrianisene] | > 46
48 | Cc1cc(O)cc(C)c1Cl [Chloroxylenol] | > 46
49 | NC(=O)OC[C@H](O)COc1ccc(Cl)cc1 [Chlorphensin carbamate] | > 46
50 | CC(C)(N)Cc1ccc(Cl)cc1 [Chlorphentermine hydrochloride] | > 46
51 | CCCNC(=O)N[S+](=O)([O-])c1ccc(Cl)cc1 [Chlorpropamide] | > 46
52 | CN(C)CC/C=C1\c2ccccc2Sc2ccc(Cl)cc21 [Chlorprothixene] | > 46
53 | CN(C)[C@H]\1[C@@H]2C[C@H]3\C(=C(\O)[C@@]2(O)C(=O)\C(=C1O)C(N)=O)C(=O)C4=C(O)C=CC(=C4[C@]3(C)O)Cl [Chlortetracycline hydrochloride] | > 46
54 | COC(=O)c1c(Cl)c(Cl)c(C(=O)OC)c(Cl)c1Cl [Chlorthal-dimethyl] | > 46
55 | N[S+](=O)([O-])c1cc([C@]2(O)NC(=O)c3ccccc32)ccc1Cl [Chlorthalidone] | > 46
56 | C[C@H](CCC(=O)O)[C@H]1CC[C@@H]2[C@H]3[C@@H](C[C@@H](O)[C@]21C)[C@]1(C)CC[C@H](O)C[C@@H]1C[C@@H]3O [Cholic Acid] | > 46
57 | CC(=O)[O-].C[N+](C)(C)CCO [Cholin acetate] | > 46
58 | C[N+](C)(C)CCO [Choline bromide] | > 46
59 | CCOC(=O)COc1ccc2c(C)c(CC[NH+](CC)CC)c(=O)oc2c1 [Chromonar hydrochloride] | > 46
60 | Cc1cc(O)c2c(O)c3c(O)cccc3cc2c1 [Chrysarobin] | > 46
61 | N#CCC(=O)NN [Ciacetacida] | > 46
62 | c1ccc(C2(c3ccccc3)CC2C2=NCCN2)cc1 (centres undefined) [Cibenzoline succinate] | > 46
63 | COc1cc(/C=C2\CCC/C(=C\c3ccc(O)c(OC)c3)C2=O)ccc1O [Ciclovalona] | > 46
64 | CC1(COc2ccc(CC3SC(=O)NC3=O)cc2)CCCCC1 (centres undefined) [Ciglitizone] | > 46
